Assay results from paper PMC12454493, “Insight on novel sulfamoylphenyl pyrazole derivatives as anticancer carbonic anhydrase inhibitors” (Molecular Diversity, 2024).
Where “and” joins values, the source holds several entries; their conditions need not be identical. Identical values can stand only once.

What was measured:
IGROV1 = experiment: NCI-60 one-dose SRB screen (Ovarian cancer); type: cell-based; conditions: Homo sapiens, IGROV-1, single dose 10 µM, 48 h, read-out: Growth inhibition percent (GI %)
OVCAR-4 = experiment: NCI-60 one-dose SRB screen (Ovarian cancer); type: cell-based; conditions: Homo sapiens, single dose 10 µM, 48 h, read-out: Growth inhibition percent (GI %)
OVCAR-8 = experiment: NCI-60 one-dose SRB screen (Ovarian cancer); type: cell-based; conditions: Homo sapiens, single dose 10 µM, 48 h, read-out: Growth inhibition percent (GI %)
OVCAR-5 = experiment: NCI-60 one-dose SRB screen (Ovarian cancer); type: cell-based; conditions: Homo sapiens, single dose 10 µM, 48 h, read-out: Growth inhibition percent (GI %)
NCI/ADR-RES = experiment: NCI-60 one-dose SRB screen (Ovarian cancer); type: cell-based; conditions: Homo sapiens, single dose 10 µM, 48 h, read-out: Growth inhibition percent (GI %)
SK-OV-3 = experiment: NCI-60 one-dose SRB screen (Ovarian cancer); type: cell-based; conditions: Homo sapiens, single dose 10 µM, 48 h, read-out: Growth inhibition percent (GI %)
OVCAR-3 = experiment: NCI-60 one-dose SRB screen (Ovarian cancer); type: cell-based; conditions: Homo sapiens, single dose 10 µM, 48 h, read-out: Growth inhibition percent (GI %)
SF-268 = experiment: NCI-60 one-dose SRB screen (CNS Cancer); type: cell-based; conditions: Homo sapiens, single dose 10 µM, 48 h, read-out: Growth inhibition percent (GI %)
SNB-75 = experiment: NCI-60 one-dose SRB screen (CNS Cancer); type: cell-based; conditions: Homo sapiens, single dose 10 µM, 48 h, read-out: Growth inhibition percent (GI %)
SNB-19 = experiment: NCI-60 one-dose SRB screen (CNS Cancer); type: cell-based; conditions: Homo sapiens, single dose 10 µM, 48 h, read-out: Growth inhibition percent (GI %)
U251 = experiment: NCI-60 one-dose SRB screen (CNS Cancer); type: cell-based; conditions: Homo sapiens, U-251, single dose 10 µM, 48 h, read-out: Growth inhibition percent (GI %)
SF-539 = experiment: NCI-60 one-dose SRB screen (CNS Cancer); type: cell-based; conditions: Homo sapiens, single dose 10 µM, 48 h, read-out: Growth inhibition percent (GI %)
SF-295 = experiment: NCI-60 one-dose SRB screen (CNS Cancer); type: cell-based; conditions: Homo sapiens, single dose 10 µM, 48 h, read-out: Growth inhibition percent (GI %)
MDA-MB-231/ATCC = experiment: NCI-60 one-dose SRB screen (Breast Cancer); type: cell-based; conditions: Homo sapiens, single dose 10 µM, 48 h, read-out: Growth inhibition percent (GI %)
MDA-MB-468 = experiment: NCI-60 one-dose SRB screen (Breast Cancer); type: cell-based; conditions: Homo sapiens, single dose 10 µM, 48 h, read-out: Growth inhibition percent (GI %)
MCF-7 = experiment: NCI-60 one-dose SRB screen (Breast Cancer); type: cell-based; conditions: Homo sapiens, MCF7, single dose 10 µM, 48 h, read-out: Growth inhibition percent (GI %)
HS 578T = experiment: NCI-60 one-dose SRB screen (Breast Cancer); type: cell-based; conditions: Homo sapiens, single dose 10 µM, 48 h, read-out: Growth inhibition percent (GI %)
NCI-H460 = experiment: NCI-60 one-dose SRB screen (Non-Small Cell Lung Cancer); type: cell-based; conditions: Homo sapiens, single dose 10 µM, 48 h, read-out: Growth inhibition percent (GI %)
NCI-H522 = experiment: as above; type: cell-based; conditions: Homo sapiens, single dose 10 µM, 48 h, read-out: Growth inhibition percent (GI %)
HOP-92 = experiment: as above; type: cell-based; conditions: Homo sapiens, single dose 10 µM, 48 h, read-out: Growth inhibition percent (GI %)
NCI-H226 = experiment: as above; type: cell-based; conditions: Homo sapiens, single dose 10 µM, 48 h, read-out: Growth inhibition percent (GI %)
EKVX = experiment: as above; type: cell-based; conditions: Homo sapiens, single dose 10 µM, 48 h, read-out: Growth inhibition percent (GI %)
HOP-62 = experiment: as above; type: cell-based; conditions: Homo sapiens, single dose 10 µM, 48 h, read-out: Growth inhibition percent (GI %)
A549/ATCC = experiment: as above; type: cell-based; conditions: Homo sapiens, single dose 10 µM, 48 h, read-out: Growth inhibition percent (GI %)
NCI-H23 = experiment: as above; type: cell-based; conditions: Homo sapiens, single dose 10 µM, 48 h, read-out: Growth inhibition percent (GI %)
NCI-H322M = experiment: as above; type: cell-based; conditions: Homo sapiens, single dose 10 µM, 48 h, read-out: Growth inhibition percent (GI %)
MALME-3M = experiment: NCI-60 one-dose SRB screen (Melanoma); type: cell-based; conditions: Homo sapiens, single dose 10 µM, 48 h, read-out: Growth inhibition percent (GI %)
SK-MEL-5 = experiment: NCI-60 one-dose SRB screen (Melanoma); type: cell-based; conditions: Homo sapiens, single dose 10 µM, 48 h, read-out: Growth inhibition percent (GI %)
LOX IMVI = experiment: NCI-60 one-dose SRB screen (Melanoma); type: cell-based; conditions: Homo sapiens, single dose 10 µM, 48 h, read-out: Growth inhibition percent (GI %)
SK-MEL-2 = experiment: NCI-60 one-dose SRB screen (Melanoma); type: cell-based; conditions: Homo sapiens, single dose 10 µM, 48 h, read-out: Growth inhibition percent (GI %)
UACC-257 = experiment: NCI-60 one-dose SRB screen (Melanoma); type: cell-based; conditions: Homo sapiens, single dose 10 µM, 48 h, read-out: Growth inhibition percent (GI %)
UACC-62 = experiment: NCI-60 one-dose SRB screen (Melanoma); type: cell-based; conditions: Homo sapiens, single dose 10 µM, 48 h, read-out: Growth inhibition percent (GI %)
MDA-MB-435 = experiment: NCI-60 one-dose SRB screen (Melanoma); type: cell-based; conditions: Homo sapiens, single dose 10 µM, 48 h, read-out: Growth inhibition percent (GI %)
SK-MEL-28 = experiment: NCI-60 one-dose SRB screen (Melanoma); type: cell-based; conditions: Homo sapiens, single dose 10 µM, 48 h, read-out: Growth inhibition percent (GI %)
M14 = experiment: NCI-60 one-dose SRB screen (Melanoma); type: cell-based; conditions: Homo sapiens, single dose 10 µM, 48 h, read-out: Growth inhibition percent (GI %)
PC-3 = experiment: NCI-60 one-dose SRB screen (Prostate Cancer); type: cell-based; conditions: Homo sapiens, single dose 10 µM, 48 h, read-out: Growth inhibition percent (GI %)
DU-145 = experiment: NCI-60 one-dose SRB screen (Prostate Cancer); type: cell-based; conditions: Homo sapiens, single dose 10 µM, 48 h, read-out: Growth inhibition percent (GI %)
hCA IX = hCA IX (Homo sapiens, UniProt Q16790); experiment: CA inhibitory activity, spectrophotometric p-NPA assay; type: biochemical; conditions: for IC50: p-NPA substrate, pH 7.5, 25 °C, triplicate, read-out: IC50 (µM) ± SD hCA IX
hCA XII = hCA XII (Homo sapiens, UniProt O43570); experiment: CA inhibitory activity, spectrophotometric p-NPA assay; type: biochemical; conditions: for IC50: p-NPA substrate, pH 7.5, 25 °C, triplicate, read-out: IC50 (µM) ± SD hCA XII
CCRF-CEM = experiment: NCI-60 one-dose SRB screen (Leukemia); type: cell-based; conditions: Homo sapiens, single dose 10 µM, 48 h, read-out: Growth inhibition percent (GI %)
RPMI-8226 = experiment: NCI-60 one-dose SRB screen (Leukemia); type: cell-based; conditions: Homo sapiens, single dose 10 µM, 48 h, read-out: Growth inhibition percent (GI %)
K-562 = experiment: NCI-60 one-dose SRB screen (Leukemia); type: cell-based; conditions: Homo sapiens, K562, single dose 10 µM, 48 h, read-out: Growth inhibition percent (GI %)
MOLT-4 = experiment: NCI-60 one-dose SRB screen (Leukemia); type: cell-based; conditions: Homo sapiens, single dose 10 µM, 48 h, read-out: Growth inhibition percent (GI %)
HL-60(TB) = experiment: NCI-60 one-dose SRB screen (Leukemia); type: cell-based; conditions: Homo sapiens, single dose 10 µM, 48 h, read-out: Growth inhibition percent (GI %)
SR = experiment: NCI-60 one-dose SRB screen (Leukemia); type: cell-based; conditions: Homo sapiens, single dose 10 µM, 48 h, read-out: Growth inhibition percent (GI %)

hCA XII, sequence (O43570 25-354): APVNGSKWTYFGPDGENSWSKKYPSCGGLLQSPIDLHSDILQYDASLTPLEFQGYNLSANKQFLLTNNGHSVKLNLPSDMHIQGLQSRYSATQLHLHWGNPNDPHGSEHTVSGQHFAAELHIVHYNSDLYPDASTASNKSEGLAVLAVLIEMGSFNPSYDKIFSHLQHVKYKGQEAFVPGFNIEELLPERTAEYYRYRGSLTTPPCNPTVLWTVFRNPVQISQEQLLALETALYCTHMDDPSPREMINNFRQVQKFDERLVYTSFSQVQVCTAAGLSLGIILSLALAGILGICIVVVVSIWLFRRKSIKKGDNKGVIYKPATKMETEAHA

Cc1ccc(-c2nn(-c3ccc(S(N)(=O)=O)cc3)cc2-c2nnc(N)s2)cc1 [Compound 10, 4-[4-(5-Amino-1,3,4-thiadiazol-2-yl)-3-(p-tolyl)-1H-pyrazol-1-yl] benzenesulfonamide]
inhibition at 10 µM (IGROV1): < 5% | inhibition at 10 µM (OVCAR-4): < 5% | inhibition at 10 µM (OVCAR-8): < 5% | inhibition at 10 µM (OVCAR-5): < 5% | inhibition at 10 µM (NCI/ADR-RES): < 5% | inhibition at 10 µM (SK-OV-3): < 5% | inhibition at 10 µM (OVCAR-3): < 5% | inhibition at 10 µM (SF-268): < 5% | inhibition at 10 µM (SNB-75): 19.5% | inhibition at 10 µM (SNB-19): 7.72% | inhibition at 10 µM (U251): 9.42% | inhibition at 10 µM (SF-539): 15.6% | inhibition at 10 µM (SF-295): < 5% | inhibition at 10 µM (MDA-MB-231/ATCC): < 5% | inhibition at 10 µM (MDA-MB-468): 5.43% | inhibition at 10 µM (MCF-7): 15.8% | inhibition at 10 µM (HS 578T): 5.02% | inhibition at 10 µM (NCI-H460): < 5% | inhibition at 10 µM (NCI-H522): 15.3% | inhibition at 10 µM (HOP-92): 30.8% | inhibition at 10 µM (NCI-H226): 5.79% | inhibition at 10 µM (EKVX): 10.5% | inhibition at 10 µM (HOP-62): < 5% | inhibition at 10 µM (A549/ATCC): < 5% | inhibition at 10 µM (NCI-H23): 10.4% | inhibition at 10 µM (NCI-H322M): < 5% | inhibition at 10 µM (MALME-3M): < 5% | inhibition at 10 µM (SK-MEL-5): 18.5% | inhibition at 10 µM (LOX IMVI): 11.8% | inhibition at 10 µM (SK-MEL-2): < 5% | inhibition at 10 µM (UACC-257): 5.16% | inhibition at 10 µM (UACC-62): < 5% | inhibition at 10 µM (MDA-MB-435): < 5% | inhibition at 10 µM (SK-MEL-28): < 5% | inhibition at 10 µM (M14): < 5% | inhibition at 10 µM (PC-3): 8.5% | inhibition at 10 µM (DU-145): < 5% | IC50 (hCA IX): 0.66 µM and 0.663 µM | melting point: 230 to 234 °C | IC50 (hCA XII): 1.14 µM and 1.15 µM | inhibition at 10 µM (CCRF-CEM): 10.2% | inhibition at 10 µM (RPMI-8226): 10.2% | inhibition at 10 µM (K-562): 11.1% | inhibition at 10 µM (MOLT-4): < 5% | inhibition at 10 µM (HL-60(TB)): 9.66% | inhibition at 10 µM (SR): < 5%

COc1ccc(-c2nn(-c3ccc(S(N)(=O)=O)cc3)cc2C(=O)OCC(=O)Nc2nnc(S(N)(=O)=O)s2)cc1 [Compound 6c, 2-Oxo-2-[(5-sulfamoyl-1,3,4-thiadiazol-2-yl)amino] ethyl 3-(4-methoxyphenyl)-1-(4-sulfamoylphenyl)-1H-pyrazole-4-carboxylate]
inhibition at 10 µM (IGROV1): < 5% | inhibition at 10 µM (OVCAR-4): < 5% | inhibition at 10 µM (OVCAR-8): < 5% | inhibition at 10 µM (OVCAR-5): < 5% | inhibition at 10 µM (NCI/ADR-RES): < 5% | inhibition at 10 µM (SK-OV-3): < 5% | inhibition at 10 µM (OVCAR-3): < 5% | inhibition at 10 µM (SF-268): < 5% | inhibition at 10 µM (SNB-75): 13.4% | inhibition at 10 µM (SNB-19): < 5% | inhibition at 10 µM (U251): < 5% | inhibition at 10 µM (SF-539): < 5% | inhibition at 10 µM (SF-295): < 5% | inhibition at 10 µM (MDA-MB-231/ATCC): < 5% | inhibition at 10 µM (MDA-MB-468): 7.76% | inhibition at 10 µM (MCF-7): 15.8% | inhibition at 10 µM (HS 578T): 12.8% | inhibition at 10 µM (NCI-H460): < 5% | inhibition at 10 µM (NCI-H522): 5.91% | inhibition at 10 µM (HOP-92): 27.4% | inhibition at 10 µM (NCI-H226): 8.69% | inhibition at 10 µM (EKVX): 11.2% | inhibition at 10 µM (HOP-62): < 5% | inhibition at 10 µM (A549/ATCC): < 5% | inhibition at 10 µM (NCI-H23): < 5% | inhibition at 10 µM (NCI-H322M): < 5% | inhibition at 10 µM (MALME-3M): 5.67% | inhibition at 10 µM (SK-MEL-5): < 5% | inhibition at 10 µM (LOX IMVI): 8.56% | inhibition at 10 µM (SK-MEL-2): < 5% | inhibition at 10 µM (UACC-257): < 5% | inhibition at 10 µM (UACC-62): 9.09% | inhibition at 10 µM (MDA-MB-435): < 5% | inhibition at 10 µM (SK-MEL-28): < 5% | inhibition at 10 µM (M14): < 5% | inhibition at 10 µM (PC-3): < 5% | inhibition at 10 µM (DU-145): < 5% | Ki (hCA IX): 73 nM | IC50 (hCA IX): 0.07 µM and 0.073 µM | melting point: 240 to 241 °C | Ki (hCA XII): 95 nM | IC50 (hCA XII): 0.09 µM and 0.095 µM | inhibition at 10 µM (CCRF-CEM): < 5% | inhibition at 10 µM (RPMI-8226): < 5% | inhibition at 10 µM (K-562): < 5% | inhibition at 10 µM (MOLT-4): < 5% | inhibition at 10 µM (HL-60(TB)): < 5% | inhibition at 10 µM (SR): < 5%
